Experimental data as given in ChEMBL document CHEMBL1201862, “PubChem BioAssay data set” (2004).
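48-hour exposure; five concentrations; linearly interpolated endpoints. GI50: concentration for 50% inhibition of growth.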 Calls of active or inactive are those of the source. Rule as the data show it: active = GI50 up to about 1.1 µM and inactive = higher.

Key:
Test in all cases: growth of human tumour cells (NCI), 48 h
OVCAR-4 = system: OVCAR-4
BT-549 = system: BT-549
EKVX = system: EKVX
NCI/ADR-RES = system: NCI/ADR-RES
MOLT-4 = system: MOLT-4
HL-60 = system: HL-60
HOP-92 = system: HOP-92
LOX IMVI = system: LOX IMVI
A498 = system: A498
CAKI-1 = system: CAKI-1
CCRF-CEM = system: CCRF-CEM
NCI-H226 = system: NCI-H226
HT-29 = system: HT-29
SK-MEL-28 = system: SK-MEL-28
HCT-15 = system: HCT-15
SNB-19 = system: SNB-19
RXF 393 = system: RXF 393
UACC-257 = system: UACC-257
MDA-MB-231 = system: MDA-MB-231
TK-10 = system: TK-10
M14 = system: M14
U-251 = system: U-251
MCF7 = system: MCF7
Malme-3M = system: Malme-3M
T47D = system: T47D
ACHN = system: ACHN
COLO 205 = system: COLO 205
OVCAR-5 = system: OVCAR-5
IGROV-1 = system: IGROV-1
MDA-N = system: MDA-N
NCI-H522 = system: NCI-H522
MDA-MB-435 = system: MDA-MB-435
SW-620 = system: SW-620
SF-539 = system: SF-539
NCI-H23 = system: NCI-H23
OVCAR-3 = system: OVCAR-3
A549 = system: A549
HCC 2998 = system: HCC 2998
SN12C = system: SN12C
SK-MEL-2 = system: SK-MEL-2
Hs-578T = system: Hs-578T
SF-295 = system: SF-295
SNB-75 = system: SNB-75
SF-268 = system: SF-268
SK-MEL-5 = system: SK-MEL-5
RPMI-8226 = system: RPMI-8226
OVCAR-8 = system: OVCAR-8
DU-145 = system: DU-145
786-0 = system: 786-0
HCT-116 = system: HCT-116
UO-31 = system: UO-31
K562 = system: K562
PC-3 = system: PC-3
SK-OV-3 = system: SK-OV-3
NCI-H460 = system: NCI-H460
UACC-62 = system: UACC-62
HOP-62 = system: HOP-62
KM12 = system: KM12
SR = system: SR

For `O=C(CCCc1ccccn1)c1ccccc1`, the GI50 (OVCAR-4) was > 100 µM (inactive), the GI50 (BT-549) was > 100 µM (inactive) and the GI50 (EKVX) was > 100 µM (inactive). The GI50 (NCI/ADR-RES) was > 100 µM (inactive), the GI50 (MOLT-4) was > 100 µM (inactive) and the GI50 (HL-60) was > 100 µM (inactive). The GI50 (HOP-92) was > 100 µM (inactive), the GI50 (LOX IMVI) was > 100 µM (inactive) and the GI50 (A498) was > 100 µM (inactive). The GI50 (CAKI-1) was > 100 µM (inactive), the GI50 (CCRF-CEM) was > 100 µM (inactive) and the GI50 (NCI-H226) was > 100 µM (inactive). For the same molecule, the GI50 (HT-29) was > 100 µM (inactive), the GI50 (SK-MEL-28) was > 100 µM (inactive) and the GI50 (HCT-15) was over 100 µM. The GI50 (SNB-19) was > 100 µM (inactive), the GI50 (RXF 393) was > 100 µM (inactive) and the GI50 (UACC-257) was > 100 µM (inactive). For the same molecule, the GI50 (MDA-MB-231) was > 100 µM (inactive), the GI50 (TK-10) was > 100 µM (inactive) and the GI50 (M14) was > 100 µM (inactive). For the same molecule, the GI50 (U-251) was > 100 µM (inactive), the GI50 (MCF7) was > 100 µM (inactive) and the GI50 (Malme-3M) was > 100 µM (inactive). The GI50 (T47D) was > 100 µM (inactive), the GI50 (ACHN) was > 100 µM (inactive) and the GI50 (COLO 205) was > 100 µM (inactive). For the same molecule, the GI50 (OVCAR-5) was > 100 µM (inactive), the GI50 (IGROV-1) was > 100 µM (inactive) and the GI50 (MDA-N) was > 100 µM (inactive). The GI50 (NCI-H522) was > 100 µM (inactive), the GI50 (MDA-MB-435) was > 100 µM (inactive) and the GI50 (SW-620) was > 100 µM (inactive). The GI50 (SF-539) was > 100 µM (inactive), the GI50 (NCI-H23) was > 100 µM (inactive) and the GI50 (OVCAR-3) was > 100 µM (inactive). The GI50 (A549) was > 100 µM (inactive), the GI50 (HCC 2998) was > 100 µM (inactive) and the GI50 (SN12C) was > 100 µM (inactive). For the same molecule, the GI50 (SK-MEL-2) was > 100 µM (inactive), the GI50 (Hs-578T) was > 100 µM (inactive) and the GI50 (SF-295) was > 100 µM (inactive). The GI50 (SNB-75) was > 100 µM (inactive), the GI50 (SF-268) was > 100 µM (inactive) and the GI50 (SK-MEL-5) was > 100 µM (inactive). The GI50 (RPMI-8226) was > 100 µM (inactive), the GI50 (OVCAR-8) was > 100 µM (inactive) and the GI50 (DU-145) was > 100 µM (inactive). For the same molecule, the GI50 (786-0) was > 100 µM (inactive), the GI50 (HCT-116) was > 100 µM (inactive) and the GI50 (UO-31) was > 100 µM (inactive). The GI50 (K562) was > 100 µM (inactive), the GI50 (PC-3) was > 100 µM (inactive) and the GI50 (SK-OV-3) was > 100 µM (inactive). The GI50 (NCI-H460) was > 100 µM (inactive), the GI50 (UACC-62) was > 100 µM (inactive) and the GI50 (HOP-62) was > 100 µM (inactive).

With `O=C(NCCN(CCNC(=O)c1cccc(=O)n1O)CCN(CCNC(=O)c1cccc(=O)n1O)CCNC(=O)c1cccc(=O)n1O)c1cccc(=O)n1O` the GI50 (OVCAR-4) was > 100 µM (inactive), the GI50 (BT-549) was > 100 µM (inactive) and the GI50 (NCI/ADR-RES) was > 100 µM (inactive). For the same molecule, the GI50 (HL-60) was 44.2 µM (inactive), the GI50 (HOP-92) was > 100 µM (inactive) and the GI50 (LOX IMVI) was > 100 µM (inactive). The GI50 (A498) was > 100 µM (inactive), the GI50 (CAKI-1) was > 100 µM (inactive) and the GI50 (CCRF-CEM) was > 100 µM (inactive). For the same molecule, the GI50 (NCI-H226) was > 100 µM (inactive), the GI50 (HT-29) was 89.9 µM (inactive) and the GI50 (SK-MEL-28) was > 100 µM (inactive). For the same molecule, the GI50 (HCT-15) was over 100 µM, the GI50 (SNB-19) was > 100 µM (inactive) and the GI50 (RXF 393) was > 100 µM (inactive). The GI50 (UACC-257) was > 100 µM (inactive), the GI50 (MDA-MB-231) was > 100 µM (inactive) and the GI50 (TK-10) was > 100 µM (inactive). The GI50 (M14) was > 100 µM (inactive), the GI50 (U-251) was > 100 µM (inactive) and the GI50 (MCF7) was > 100 µM (inactive). The GI50 (Malme-3M) was 60.8 µM (inactive), the GI50 (T47D) was > 100 µM (inactive) and the GI50 (ACHN) was > 100 µM (inactive). The GI50 (COLO 205) was > 100 µM (inactive), the GI50 (OVCAR-5) was > 100 µM (inactive) and the GI50 (IGROV-1) was > 100 µM (inactive). For the same molecule, the GI50 (MDA-N) was > 100 µM (inactive), the GI50 (NCI-H522) was > 100 µM (inactive) and the GI50 (MDA-MB-435) was > 100 µM (inactive). For the same molecule, the GI50 (SW-620) was > 100 µM (inactive), the GI50 (SF-539) was > 100 µM (inactive) and the GI50 (NCI-H23) was > 100 µM (inactive). The GI50 (OVCAR-3) was > 100 µM (inactive), the GI50 (KM12) was > 100 µM (inactive) and the GI50 (A549) was > 100 µM (inactive). The GI50 (HCC 2998) was > 100 µM (inactive), the GI50 (SN12C) was > 100 µM (inactive) and the GI50 (SK-MEL-2) was > 100 µM (inactive). For the same molecule, the GI50 (Hs-578T) was > 100 µM (inactive), the GI50 (SF-295) was > 100 µM (inactive) and the GI50 (SNB-75) was > 100 µM (inactive). The GI50 (SF-268) was > 100 µM (inactive), the GI50 (SK-MEL-5) was > 100 µM (inactive) and the GI50 (RPMI-8226) was > 100 µM (inactive). For the same molecule, the GI50 (OVCAR-8) was > 100 µM (inactive), the GI50 (DU-145) was > 100 µM (inactive) and the GI50 (786-0) was > 100 µM (inactive). The GI50 (HCT-116) was > 100 µM (inactive), the GI50 (UO-31) was > 100 µM (inactive) and the GI50 (K562) was > 100 µM (inactive). For the same molecule, the GI50 (PC-3) was > 100 µM (inactive), the GI50 (SK-OV-3) was > 100 µM (inactive) and the GI50 (NCI-H460) was > 100 µM (inactive). The GI50 (UACC-62) was > 100 µM (inactive) and the GI50 (HOP-62) was > 100 µM (inactive).

For `Nc1cc(CO)cc(Nc2nc3ccc(Cl)cc3c3[nH]c4ccccc4c23)c1`, the GI50 (BT-549) was 10.9 µM (inactive), the GI50 (EKVX) was 1.52 µM (inactive) and the GI50 (NCI/ADR-RES) was 8.45 µM (inactive). For the same molecule, the GI50 (MOLT-4) was 4.2 µM (inactive), the GI50 (HL-60) was 21.7 µM (inactive) and the GI50 (HOP-92) was 2.43 µM (inactive). For the same molecule, the GI50 (CAKI-1) was 2.69 µM (inactive), the GI50 (CCRF-CEM) was 4.79 µM (inactive) and the GI50 (HT-29) was 3.64 µM (inactive). The GI50 (HCT-15) was 3.92 µM, the GI50 (SNB-19) was 4.32 µM (inactive) and the GI50 (UACC-257) was 10.7 µM (inactive). For the same molecule, the GI50 (MDA-MB-231) was 2.55 µM (inactive), the GI50 (TK-10) was 6.05 µM (inactive) and the GI50 (M14) was 4.98 µM (inactive). For the same molecule, the GI50 (U-251) was 3.05 µM (inactive), the GI50 (MCF7) was 0.67 µM (active) and the GI50 (Malme-3M) was 5.27 µM (inactive). The GI50 (T47D) was 3.74 µM (inactive), the GI50 (ACHN) was 3.17 µM (inactive) and the GI50 (COLO 205) was 2.29 µM (inactive). For the same molecule, the GI50 (OVCAR-5) was 3.85 µM (inactive), the GI50 (IGROV-1) was 1.54 µM (inactive) and the GI50 (MDA-N) was 6.65 µM (inactive). The GI50 (NCI-H522) was 2.79 µM (inactive), the GI50 (MDA-MB-435) was 3.85 µM (inactive) and the GI50 (SW-620) was 4.44 µM (inactive). The GI50 (SF-539) was 3.34 µM (inactive), the GI50 (NCI-H23) was 6.28 µM (inactive) and the GI50 (KM12) was 4.98 µM (inactive). For the same molecule, the GI50 (SR) was 2.16 µM (inactive), the GI50 (A549) was 3.2 µM (inactive) and the GI50 (SN12C) was 2.89 µM (inactive). The GI50 (SK-MEL-2) was 4.27 µM (inactive), the GI50 (Hs-578T) was 5.43 µM (inactive) and the GI50 (SF-295) was 3.56 µM (inactive). For the same molecule, the GI50 (SF-268) was 2.86 µM (inactive), the GI50 (RPMI-8226) was 2.96 µM (inactive) and the GI50 (OVCAR-8) was 4.28 µM (inactive). The GI50 (DU-145) was 3.65 µM (inactive), the GI50 (786-0) was 1.98 µM (inactive) and the GI50 (HCT-116) was 3.34 µM (inactive). For the same molecule, the GI50 (UO-31) was 2.9 µM (inactive), the GI50 (K562) was 4.67 µM (inactive) and the GI50 (PC-3) was 4.92 µM (inactive). The GI50 (SK-OV-3) was 3.24 µM (inactive), the GI50 (NCI-H460) was 2.2 µM (inactive) and the GI50 (UACC-62) was 1.85 µM (inactive). The GI50 (HOP-62) was 7.19 µM (inactive).
